Results: ChEMBL document CHEMBL4507258 (2021)

Columns and labels:
[1] = target: RAC-alpha serine/threonine-protein kinase (Homo sapiens) (UniProt P31749); conditions: Compound concentration 1000.0 nM
[2] = test system: Epidermal growth factor receptor (Homo sapiens), P00533 [T790M]; conditions: Compound concentration 1000.0 nM
[3] = test system: Phosphatidylinositol 4,5-bisphosphate 3-kinase catalytic subunit alpha isoform (Homo sapiens), P42336 [Q546K]; conditions: Compound concentration 1000.0 nM
[4] = test system: Receptor-type tyrosine-protein kinase FLT3 (Homo sapiens), P36888 [D835V]; conditions: Compound concentration 1000.0 nM
[5] = target: Serine/threonine-protein kinase Nek4 (Homo sapiens) (UniProt P51957); conditions: Compound concentration 1000.0 nM
[6] = target: Serine/threonine-protein kinase TAO3 (Homo sapiens) (UniProt Q9H2K8); conditions: Compound concentration 1000.0 nM
[7] = target: Serine/threonine-protein kinase NIM1 (Homo sapiens) (UniProt Q8IY84); conditions: Compound concentration 1000.0 nM
Sequence of Serine/threonine-protein kinase NIM1 (Homo sapiens) (Q8IY84 whole entry): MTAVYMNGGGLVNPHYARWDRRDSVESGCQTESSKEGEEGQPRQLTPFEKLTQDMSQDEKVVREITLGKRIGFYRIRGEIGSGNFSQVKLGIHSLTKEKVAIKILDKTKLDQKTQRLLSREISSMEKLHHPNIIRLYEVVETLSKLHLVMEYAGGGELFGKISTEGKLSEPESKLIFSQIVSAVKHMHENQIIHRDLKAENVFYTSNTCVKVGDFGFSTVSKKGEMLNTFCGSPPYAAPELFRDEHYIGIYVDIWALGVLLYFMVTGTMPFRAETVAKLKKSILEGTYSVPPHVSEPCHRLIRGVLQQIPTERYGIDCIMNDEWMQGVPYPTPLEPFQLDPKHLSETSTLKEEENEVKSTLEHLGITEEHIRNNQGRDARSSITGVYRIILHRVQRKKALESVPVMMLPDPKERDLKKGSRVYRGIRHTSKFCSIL

[8] = target: Phosphatidylinositol 4-kinase beta (Homo sapiens) (UniProt Q9UBF8); conditions: Compound concentration 1000.0 nM
[9] = target: Dual specificity tyrosine-phosphorylation-regulated kinase 1A (Homo sapiens) (UniProt Q13627); conditions: Compound concentration 1000.0 nM
[10] = target: Alpha-2B adrenergic receptor (Homo sapiens) (UniProt P18089); conditions: Compound concentration 10.0 uM
[11] = target: cGMP-dependent protein kinase 2 (Homo sapiens) (UniProt Q13237); conditions: Compound concentration 1000.0 nM
[12] = target: Protein-tyrosine kinase 2-beta (Homo sapiens) (UniProt Q14289); conditions: Compound concentration 1000.0 nM
Sequence of Protein-tyrosine kinase 2-beta (Homo sapiens) (Q14289 whole entry, looked up): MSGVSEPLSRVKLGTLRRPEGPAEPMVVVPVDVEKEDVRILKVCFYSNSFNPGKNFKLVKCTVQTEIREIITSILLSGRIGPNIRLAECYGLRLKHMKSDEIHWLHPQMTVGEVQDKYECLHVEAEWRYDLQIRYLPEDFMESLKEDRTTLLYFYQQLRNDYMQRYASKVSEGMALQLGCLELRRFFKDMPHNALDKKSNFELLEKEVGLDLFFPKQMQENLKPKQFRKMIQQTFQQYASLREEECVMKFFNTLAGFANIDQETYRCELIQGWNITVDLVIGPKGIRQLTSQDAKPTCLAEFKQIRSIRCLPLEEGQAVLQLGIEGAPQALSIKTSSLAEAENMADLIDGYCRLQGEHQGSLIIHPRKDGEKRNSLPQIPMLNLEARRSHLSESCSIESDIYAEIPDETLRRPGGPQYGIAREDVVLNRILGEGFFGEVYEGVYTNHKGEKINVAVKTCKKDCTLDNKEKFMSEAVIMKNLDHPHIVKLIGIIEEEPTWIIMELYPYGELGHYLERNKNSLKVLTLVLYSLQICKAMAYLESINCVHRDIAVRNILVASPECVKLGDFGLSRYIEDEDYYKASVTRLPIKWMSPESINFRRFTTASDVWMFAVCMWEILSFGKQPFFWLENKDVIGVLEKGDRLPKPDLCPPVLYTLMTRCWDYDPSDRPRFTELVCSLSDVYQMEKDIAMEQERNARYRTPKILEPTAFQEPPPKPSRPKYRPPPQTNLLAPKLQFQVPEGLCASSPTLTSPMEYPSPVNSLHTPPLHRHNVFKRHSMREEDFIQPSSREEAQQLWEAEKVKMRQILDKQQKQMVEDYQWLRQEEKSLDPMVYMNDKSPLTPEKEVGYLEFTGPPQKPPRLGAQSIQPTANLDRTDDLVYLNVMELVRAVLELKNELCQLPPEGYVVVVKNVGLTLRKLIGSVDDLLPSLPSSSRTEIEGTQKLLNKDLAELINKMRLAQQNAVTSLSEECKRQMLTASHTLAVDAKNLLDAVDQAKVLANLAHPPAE

[13] = target: 1-phosphatidylinositol 3-phosphate 5-kinase (Homo sapiens) (UniProt Q9Y2I7); conditions: Compound concentration 1000.0 nM
[14] = target: Ephrin type-A receptor 3 (Homo sapiens) (UniProt P29320); conditions: Compound concentration 1000.0 nM
[15] = test system: Epidermal growth factor receptor (Homo sapiens), P00533 [L858R]; conditions: Compound concentration 1000.0 nM
[16] = target: Insulin receptor-related protein (Homo sapiens) (UniProt P14616); conditions: Compound concentration 1000.0 nM
[17] = target: Mitogen-activated protein kinase kinase kinase 9 (Homo sapiens) (UniProt P80192); conditions: Compound concentration 1000.0 nM
[18] = target: Tyrosine-protein kinase ZAP-70 (Homo sapiens) (UniProt P43403); conditions: Compound concentration 1000.0 nM
[19] = target: Serine/threonine-protein kinase WNK4 (Homo sapiens) (UniProt Q96J92); conditions: Compound concentration 1000.0 nM
[20] = target: Ephrin type-A receptor 8 (Homo sapiens) (UniProt P29322); conditions: Compound concentration 1000.0 nM
[21] = target: TGF-beta receptor type-1 (Homo sapiens) (UniProt P36897); conditions: Compound concentration 1000.0 nM
Sequence of TGF-beta receptor type-1 (Homo sapiens) (P36897 whole entry): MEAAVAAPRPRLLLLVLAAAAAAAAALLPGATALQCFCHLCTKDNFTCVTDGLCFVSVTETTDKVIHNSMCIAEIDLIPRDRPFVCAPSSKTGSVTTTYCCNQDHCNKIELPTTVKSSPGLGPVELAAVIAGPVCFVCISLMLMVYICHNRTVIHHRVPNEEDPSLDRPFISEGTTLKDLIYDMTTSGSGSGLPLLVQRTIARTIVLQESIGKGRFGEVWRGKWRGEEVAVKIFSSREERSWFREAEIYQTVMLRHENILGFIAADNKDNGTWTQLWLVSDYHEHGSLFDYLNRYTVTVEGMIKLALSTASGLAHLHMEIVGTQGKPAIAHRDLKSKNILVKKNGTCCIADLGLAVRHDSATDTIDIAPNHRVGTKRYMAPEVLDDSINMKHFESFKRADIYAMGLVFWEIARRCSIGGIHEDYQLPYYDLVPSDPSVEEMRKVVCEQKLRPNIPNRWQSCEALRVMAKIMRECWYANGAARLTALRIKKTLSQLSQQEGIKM

[22] = target: Inhibitor of nuclear factor kappa-B kinase subunit alpha (Homo sapiens) (UniProt O15111); conditions: Compound concentration 1000.0 nM
[23] = test system: Epidermal growth factor receptor (Homo sapiens), P00533 [L861Q]; conditions: Compound concentration 1000.0 nM
[24] = target: Casein kinase I isoform epsilon (Homo sapiens) (UniProt P49674); conditions: Compound concentration 1000.0 nM
[25] = test system: Tyrosine-protein kinase ABL1 (Homo sapiens), P00519 [Q252H]; conditions: Compound concentration 1000.0 nM
[26] = target: Rhodopsin kinase GRK7 (Homo sapiens) (UniProt Q8WTQ7); conditions: Compound concentration 1000.0 nM
[27] = target: Serine/threonine-protein kinase Nek9 (Homo sapiens) (UniProt Q8TD19); conditions: Compound concentration 1000.0 nM
[28] = target: Serine/threonine-protein kinase PAK 3 (Homo sapiens) (UniProt O75914); conditions: Compound concentration 1000.0 nM
[29] = test system: ALK tyrosine kinase receptor (Homo sapiens), Q9UM73 [C1156Y]; conditions: Compound concentration 1000.0 nM
[30] = target: Serine/threonine-protein kinase SBK1 (Homo sapiens) (UniProt Q52WX2); conditions: Compound concentration 1000.0 nM
[31] = target: Serine/threonine-protein kinase PAK 2 (Homo sapiens) (UniProt Q13177); conditions: Compound concentration 1000.0 nM
Sequence of Serine/threonine-protein kinase PAK 2 (Homo sapiens) (Q13177 whole entry): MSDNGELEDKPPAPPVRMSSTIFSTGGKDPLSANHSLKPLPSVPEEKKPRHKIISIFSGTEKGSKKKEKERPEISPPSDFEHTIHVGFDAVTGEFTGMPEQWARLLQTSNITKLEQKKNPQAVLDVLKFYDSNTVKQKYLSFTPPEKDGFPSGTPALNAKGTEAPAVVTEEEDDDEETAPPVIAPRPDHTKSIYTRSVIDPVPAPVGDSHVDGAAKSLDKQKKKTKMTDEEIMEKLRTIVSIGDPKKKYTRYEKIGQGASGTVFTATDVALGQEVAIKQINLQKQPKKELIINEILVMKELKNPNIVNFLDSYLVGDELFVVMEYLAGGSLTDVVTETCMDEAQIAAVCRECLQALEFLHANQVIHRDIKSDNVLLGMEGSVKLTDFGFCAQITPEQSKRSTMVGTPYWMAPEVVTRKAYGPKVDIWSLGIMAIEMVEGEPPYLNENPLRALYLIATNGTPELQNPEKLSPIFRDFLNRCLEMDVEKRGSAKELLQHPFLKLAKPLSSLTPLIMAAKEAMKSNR

[32] = target: Muscarinic acetylcholine receptor M3 (Homo sapiens) (UniProt P20309); conditions: Compound concentration 10.0 uM
[33] = target: Macrophage colony-stimulating factor 1 receptor (Homo sapiens) (UniProt P07333); conditions: Compound concentration 1000.0 nM
[34] = target: LIM domain kinase 2 (Homo sapiens) (UniProt P53671); conditions: Compound concentration 1000.0 nM
Sequence of LIM domain kinase 2 (Homo sapiens) (P53671 whole entry, looked up, the tested form may be a part): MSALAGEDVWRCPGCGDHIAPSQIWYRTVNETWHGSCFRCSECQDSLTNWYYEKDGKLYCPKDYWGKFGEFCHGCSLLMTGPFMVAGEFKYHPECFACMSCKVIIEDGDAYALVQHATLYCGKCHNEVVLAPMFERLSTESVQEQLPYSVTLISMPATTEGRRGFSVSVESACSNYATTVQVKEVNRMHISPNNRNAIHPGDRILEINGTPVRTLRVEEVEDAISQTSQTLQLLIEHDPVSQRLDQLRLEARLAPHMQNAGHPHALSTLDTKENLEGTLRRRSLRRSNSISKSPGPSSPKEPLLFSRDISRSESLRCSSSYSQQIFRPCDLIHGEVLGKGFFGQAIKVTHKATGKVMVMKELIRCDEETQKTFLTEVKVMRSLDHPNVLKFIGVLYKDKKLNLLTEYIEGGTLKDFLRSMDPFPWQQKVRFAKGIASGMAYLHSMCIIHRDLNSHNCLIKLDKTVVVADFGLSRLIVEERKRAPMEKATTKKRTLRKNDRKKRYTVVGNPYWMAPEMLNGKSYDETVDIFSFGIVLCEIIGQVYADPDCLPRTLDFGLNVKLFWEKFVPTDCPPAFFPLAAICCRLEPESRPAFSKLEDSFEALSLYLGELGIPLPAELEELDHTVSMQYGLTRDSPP

[35] = target: Serine/threonine-protein kinase PAK 5 (Homo sapiens) (UniProt Q9P286); conditions: Compound concentration 1000.0 nM
[36] = test system: Phosphatidylinositol 4,5-bisphosphate 3-kinase catalytic subunit alpha isoform (Homo sapiens), P42336 [H1047L]; conditions: Compound concentration 1000.0 nM
[37] = target: Serine/threonine-protein kinase PLK1 (Homo sapiens) (UniProt P53350); conditions: Compound concentration 1000.0 nM
Sequence of Serine/threonine-protein kinase PLK1 (Homo sapiens) (P53350 whole entry): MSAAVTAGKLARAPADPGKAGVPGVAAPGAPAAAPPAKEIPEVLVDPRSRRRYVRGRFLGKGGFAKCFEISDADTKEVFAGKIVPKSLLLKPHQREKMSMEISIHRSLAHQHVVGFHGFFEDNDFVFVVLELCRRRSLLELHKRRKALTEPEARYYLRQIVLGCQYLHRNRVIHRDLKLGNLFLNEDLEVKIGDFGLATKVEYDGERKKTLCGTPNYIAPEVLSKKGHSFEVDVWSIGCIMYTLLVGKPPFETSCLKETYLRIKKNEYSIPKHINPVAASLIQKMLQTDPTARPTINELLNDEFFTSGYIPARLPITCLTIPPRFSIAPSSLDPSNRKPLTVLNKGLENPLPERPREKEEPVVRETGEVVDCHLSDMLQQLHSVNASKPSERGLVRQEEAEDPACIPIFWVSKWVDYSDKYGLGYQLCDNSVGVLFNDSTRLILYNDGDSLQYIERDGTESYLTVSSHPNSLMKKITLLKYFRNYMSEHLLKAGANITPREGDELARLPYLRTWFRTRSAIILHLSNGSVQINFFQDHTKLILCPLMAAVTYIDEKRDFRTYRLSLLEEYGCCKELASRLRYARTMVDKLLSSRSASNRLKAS

[38] = target: Tyrosine-protein kinase receptor TYRO3 (Homo sapiens) (UniProt Q06418); conditions: Compound concentration 1000.0 nM
[39] = target: Calcium/calmodulin-dependent protein kinase type 1G (Homo sapiens) (UniProt Q96NX5); conditions: Compound concentration 1000.0 nM
[40] = target: Cyclin-dependent kinase-like 5 (Homo sapiens) (UniProt O76039); conditions: Compound concentration 1000.0 nM
[41] = target: Mitotic checkpoint serine/threonine-protein kinase BUB1 (Homo sapiens) (UniProt O43683); conditions: Compound concentration 1000.0 nM
[42] = target: Serine/threonine-protein kinase 3 (Homo sapiens) (UniProt Q13188); conditions: Compound concentration 1000.0 nM
[43] = target: Microtubule-associated serine/threonine-protein kinase 1 (Homo sapiens) (UniProt Q9Y2H9); conditions: Compound concentration 1000.0 nM
[44] = target: Tyrosine-protein kinase JAK1 (Homo sapiens) (UniProt P23458); conditions: Compound concentration 1000.0 nM
Sequence of Tyrosine-protein kinase JAK1 (Homo sapiens) (P23458 whole entry): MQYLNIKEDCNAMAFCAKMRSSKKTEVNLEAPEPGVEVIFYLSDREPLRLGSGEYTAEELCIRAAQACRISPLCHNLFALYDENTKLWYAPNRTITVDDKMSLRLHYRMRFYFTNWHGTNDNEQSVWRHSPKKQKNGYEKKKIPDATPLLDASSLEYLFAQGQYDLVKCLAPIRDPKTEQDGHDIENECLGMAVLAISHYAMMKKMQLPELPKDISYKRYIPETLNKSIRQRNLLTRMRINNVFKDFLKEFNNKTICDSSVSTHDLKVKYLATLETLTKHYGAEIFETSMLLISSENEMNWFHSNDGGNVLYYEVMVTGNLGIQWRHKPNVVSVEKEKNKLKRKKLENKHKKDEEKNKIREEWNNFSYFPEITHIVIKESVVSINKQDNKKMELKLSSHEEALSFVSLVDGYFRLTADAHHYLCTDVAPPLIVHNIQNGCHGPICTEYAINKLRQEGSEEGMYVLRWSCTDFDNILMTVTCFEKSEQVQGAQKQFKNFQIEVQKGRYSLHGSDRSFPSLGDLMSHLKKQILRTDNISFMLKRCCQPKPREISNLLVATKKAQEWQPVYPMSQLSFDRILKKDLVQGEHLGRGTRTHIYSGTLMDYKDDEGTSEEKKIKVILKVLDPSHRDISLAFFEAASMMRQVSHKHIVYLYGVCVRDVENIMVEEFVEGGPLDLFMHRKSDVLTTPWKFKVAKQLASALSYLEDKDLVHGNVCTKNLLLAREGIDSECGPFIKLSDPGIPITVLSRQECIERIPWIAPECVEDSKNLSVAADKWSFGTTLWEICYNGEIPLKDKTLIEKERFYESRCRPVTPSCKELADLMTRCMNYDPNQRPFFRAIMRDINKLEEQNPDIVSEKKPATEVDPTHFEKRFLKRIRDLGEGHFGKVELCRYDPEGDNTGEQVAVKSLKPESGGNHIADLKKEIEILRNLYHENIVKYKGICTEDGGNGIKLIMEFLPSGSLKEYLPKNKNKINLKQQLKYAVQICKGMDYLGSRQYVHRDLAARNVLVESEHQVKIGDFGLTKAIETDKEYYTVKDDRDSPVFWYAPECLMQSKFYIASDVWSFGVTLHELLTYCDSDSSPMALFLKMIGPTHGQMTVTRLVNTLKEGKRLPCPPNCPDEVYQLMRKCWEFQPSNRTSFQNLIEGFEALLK

[45] = target: Muscle, skeletal receptor tyrosine-protein kinase (Homo sapiens) (UniProt O15146); conditions: Compound concentration 1000.0 nM

## CCCCN(CCCC)C(=O)CN1C[C@@H](c2cc(OC)c3c(c2)OCO3)[C@H](C(=O)O)[C@H]1CC(C)(C)CCC [A-545]
[1]
  residual activity: 85.7%
[2]
  residual activity: 86.7%
[3]
  residual activity: 100%
[4]
  residual activity: 78.8%
[5]
  residual activity: 93.9%
[6]
  residual activity: 67.9%
[7]
  residual activity: 100%
[8]
  residual activity: 97.6%
[9]
  residual activity: 96.3%
[10]
  inhibition: 50%
[11]
  residual activity: 100%
[12]
  residual activity: 93.4%
[13]
  residual activity: 81.4%
[14]
  residual activity: 95.3%
[15]
  residual activity: 100%
[16]
  residual activity: 93.2%
[17]
  residual activity: 98.8%
[18]
  residual activity: 98.5%
[19]
  residual activity: 100%
[20]
  residual activity: 99.9%
[21]
  residual activity: 100%
[22]
  residual activity: 100%
[23]
  residual activity: 100%
[24]
  residual activity: 100%
[25]
  residual activity: 100%
[26]
  residual activity: 90.8%
[27]
  residual activity: 84.2%
[28]
  residual activity: 89.4%
[29]
  residual activity: 95.4%
[30]
  residual activity: 90.6%
[31]
  residual activity: 83.5%
[32]
  inhibition: 10.3%
[33]
  residual activity: 86.7%
[34]
  residual activity: 86.8%
[35]
  residual activity: 96.6%
[36]
  residual activity: 62.4%
[37]
  residual activity: 100%
[38]
  residual activity: 97.1%
[39]
  residual activity: 100%
[40]
  residual activity: 100%
[41]
  residual activity: 94.9%
[42]
  residual activity: 100%
[43]
  residual activity: 100%
[44]
  residual activity: 100%
[45]
  residual activity: 78.7%

## CCCCN(CCCC)C(=O)CN1C[C@H](c2cc(OC)c3c(c2)OCO3)[C@@H](C(=O)O)[C@@H]1CC(C)(C)CCC [ABT-546]
[1]
  residual activity: 100%
[2]
  residual activity: 79%
[3]
  residual activity: 67.3%
[4]
  residual activity: 57.4%
[5]
  residual activity: 85%
[6]
  residual activity: 63.2%
[7]
  residual activity: 100%
[8]
  residual activity: 80.5%
[9]
  residual activity: 73.1%
[10]
  inhibition: 9.73%
[11]
  residual activity: 100%
[12]
  residual activity: 100%
[13]
  residual activity: 100%
[14]
  residual activity: 100%
[15]
  residual activity: 99.7%
[16]
  residual activity: 100%
[17]
  residual activity: 100%
[18]
  residual activity: 70.1%
[19]
  residual activity: 97.9%
[20]
  residual activity: 100%
[21]
  residual activity: 98.6%
[22]
  residual activity: 56.2%
[23]
  residual activity: 76.4%
[24]
  residual activity: 100%
[25]
  residual activity: 100%
[26]
  residual activity: 98.3%
[27]
  residual activity: 100%
[28]
  residual activity: 100%
[29]
  residual activity: 100%
[30]
  residual activity: 76.5%
[31]
  residual activity: 100%
[32]
  inhibition: -9.94%
[33]
  residual activity: 100%
[34]
  residual activity: 100%
[35]
  residual activity: 93.8%
[36]
  residual activity: 100%
[37]
  residual activity: 73.5%
[38]
  residual activity: 100%
[39]
  residual activity: 100%
[40]
  residual activity: 71.4%
[41]
  residual activity: 75.4%
[42]
  residual activity: 96.1%
[43]
  residual activity: 100%
[44]
  residual activity: 84.7%
[45]
  residual activity: 100%
